Measured values as given in patent publication US20070249620A1, “Urea Derivative” (priority 2004, published 2007).

How the values were obtained:
mouse DGAT1 = target: T1, mouse DGAT1 (Mus musculus, UniProt Q9Z2A7); experiment: DGAT1 inhibitory effect test (microsome fraction, [14C]-oleoyl-CoA, triglyceride radioactivity by TLC); format: biochemical; conditions: 0.5 h; concentration of the test compound 0.1 μg/ml; mouse DGAT1 microsomes, 23° C., 30 minutes; read-out: Inhibitory ratio
T1 construct: made in house; host or cells: insect cells (High Five, Sf9, Sf21, etc.), baculovirus expression system (Invitrogen)
T1 sequence (Q9Z2A7 1-498): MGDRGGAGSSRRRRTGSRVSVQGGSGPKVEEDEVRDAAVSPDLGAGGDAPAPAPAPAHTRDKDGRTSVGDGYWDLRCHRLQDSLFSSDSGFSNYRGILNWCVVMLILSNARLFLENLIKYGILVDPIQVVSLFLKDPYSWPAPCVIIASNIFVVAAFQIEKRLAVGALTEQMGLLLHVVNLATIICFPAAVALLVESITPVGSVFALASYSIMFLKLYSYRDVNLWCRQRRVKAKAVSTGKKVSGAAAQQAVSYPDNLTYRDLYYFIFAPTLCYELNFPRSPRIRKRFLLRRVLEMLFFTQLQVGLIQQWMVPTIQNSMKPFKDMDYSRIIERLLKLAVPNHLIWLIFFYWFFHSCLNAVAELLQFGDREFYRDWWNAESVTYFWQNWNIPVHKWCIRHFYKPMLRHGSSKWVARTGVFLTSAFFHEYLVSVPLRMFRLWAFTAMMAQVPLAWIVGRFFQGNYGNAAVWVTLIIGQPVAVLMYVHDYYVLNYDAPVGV
Protocol: The cDNA which encodes mouse DGAT1 was cloned from a mouse cDNA library by polymerase chain reaction (hereinafter referred to as “PCR”) and introduced into an insect cell virus vector (baculovirus expression system, Invitrogen). After insect cells (High Five, Sf9, Sf21, etc., Invitrogen) were infected with the virus, the cells were collected in buffer A [0.1M sucrose, 50 mM KCl, 40 mM potassium phosphate (pH 7.4), 30 mM EDTA, 1% Protease inhibitor cocktail (SIGMA, P-8340)] and crushed with a Polytron homogenizer. The supernatant obtained by subjecting the homogenate to low speed centrifugal processing (10,000 ×g, 30 minutes) was further subjected to higher-speed centrifugal processing (100,000 ×g, 60 minutes) and the precipitate was resuspended in buffer A as the microsome fraction and used as DGAT1 enzyme. The DGAT1 enzyme was divided into small volumes and stored at −80° C.
(2) DGAT1 Inhibitory Effect Test
The reaction liquid of the following composition [175 mM Tris-HCl (pH 8.0), 8 mM MgCl2, 1 mg/ml BSA, 0.5 mM 1,2-dioleoyl-sn-glycerol (EtOH solution of 10-fold concentration, 10% added), 30 μM[14C]-oleoyl-CoA (about 50 mCi/mmol), 0.5% triton X-100, DGAT1 enzyme (10 μg) obtained in Test Example 1(1), test compound or vehicle (DMSO/MeOH, 7:3 solution, 5% added), total volume 50 μl] was incubated at room temperature (23° C.) for 30 minutes. A reaction terminating solution (70 μl) consisting of isopropanol/1-heptane/water (80:20:2, v/v/v) was added to the reaction solution and stirred, and subsequently stirred with water (30 μl) and 1-heptane (100 μl). The 1-heptane layer (50 μl) was spotted onto a TLC plate and developed with a developing solvent consisting of 1-hexane/diethyl ether/acetic acid (85:15:1, v/v/v). Radioactivity of triglyceride fraction was quantified by BAS2000 bio image analyzer (Fuji Film) and the inhibitory effect of the test compounds was calculated by the following formula through comparison with control. Here, radioactivity at no reaction (0 minutes incubation) was assumed as background. Inhibitory ratio=100−[(Radioactivity when test compound was added)−(Background)]/[(Radioactivity by control)−(Background)]×100

Row | Structure (SMILES) | inhibition at 0.1 µg/mL (mouse DGAT1) | melting point
1 | CCOc1ccc(F)cc1NC(=O)Nc1ccc(N2CCN(C(=O)OC(C)(C)C)CC2)nc1 [Example 46, 4-{5-[3-(2-ethoxy-5-fluoro-phenyl)-ureido]-pyridin-2-yl}-piperazine-1-carboxylic acid tert-butyl ester] | ≥ 50% | 180 °C
2 | COc1ccc(C)cc1NC(=O)Nc1ccc(N2CCN(C(=O)Nc3ccccc3C(F)(F)F)CC2)cc1 [Example 53, 4-{4-[3-(2-methoxy-5-methyl-phenyl)-ureido]-phenyl}-piperazine-1-carboxylic acid (2-trifluoromethyl-phenyl)-amide] | ≥ 50% | 170 to 171 °C
3 | COc1ccc(C)cc1NC(=O)Nc1ccc(N2CCN(C(=O)Nc3ccccc3C)CC2)cc1 [Example 54, 4-{4-[3-(2-methoxy-5-methyl-phenyl)-ureido]-phenyl}-piperazine-1-carboxylic acid o-tolylamide] | ≥ 50% | 209 to 211 °C
4 | COc1ccc(C)cc1NC(=O)Nc1ccc(N2CCN(C(=O)Nc3ccccc3Br)CC2)cc1 [Example 57, 4-{4-[3-(2-methoxy-5-methyl-phenyl)-ureido]-phenyl}-piperazine-1-carboxylic acid (2-bromo-phenyl)-amide] | ≥ 50% | 212 to 214 °C
5 | CCc1ccccc1NC(=O)N1CCN(c2ccc(NC(=O)Nc3cc(C)ccc3OC)cc2)CC1 [Example 58, 4-{4-[3-(2-methoxy-5-methyl-phenyl)-ureido]-phenyl}-piperazine-1-carboxylic acid (2-ethyl-phenyl)-amide] | ≥ 50% | 220 to 221 °C
6 | COc1ccc(C)cc1NC(=O)Nc1ccc(N2CCN(C(=O)Nc3c(C)cccc3Cl)CC2)cc1 [Example 59, 4-{4-[3-(2-methoxy-5-methyl-phenyl)-ureido]-phenyl}-piperazine-1-carboxylic acid (2-chloro-6-methyl-phenyl)-amide] | ≥ 50% | 143 to 145 °C
7 | COc1ccc(C)cc1NC(=O)Nc1ccc(N2CCN(C(=O)Nc3c(C)cccc3[N+](=O)[O-])CC2)cc1 [Example 60, 4-{4-[3-(2-methoxy-5-methyl-phenyl)-ureido]-phenyl}-piperazine-1-carboxylic acid (2-methyl-6-nitro-phenyl)-amide] | ≥ 50% | 213 to 215 °C
8 | COc1ccc(C)cc1NC(=O)Nc1ccc(N2CCN(C(=O)Nc3ccccc3C#N)CC2)cc1 [Example 61, 4-{4-[3-(2-methoxy-5-methyl-phenyl)-ureido]-phenyl}-piperazine-1-carboxylic acid (2-cyano-phenyl)-amide] | ≥ 50% | 210 to 212 °C
9 | COc1ccc(C)cc1NC(=O)Nc1ccc(N2CCN(C(=O)Nc3c(C)cccc3C)CC2)cc1 [Example 62, 4-{4-[3-(2-methoxy-5-methyl-phenyl)-ureido]-phenyl}-piperazine-1-carboxylic acid (2,6-dimethyl-phenyl)-amide] | ≥ 50% | 212 to 214 °C
10 | COc1ccc(C)cc1NC(=O)Nc1ccc(N2CCN(C(=O)Nc3c(F)cccc3C(F)(F)F)CC2)cc1 [Example 64, 4-{4-[3-(2-methoxy-5-methyl-phenyl)-ureido]-phenyl}-piperazine-1-carboxylic acid (2-fluoro-6-trifluoromethyl-phenyl)-amide] | ≥ 50% | 134 to 136 °C
11 | COc1ccc(C)cc1NC(=O)Nc1ccc(N2CCN(C(=O)Nc3c(Cl)cccc3Cl)CC2)cc1 [Example 65, 4-{4-[3-(2-methoxy-5-methyl-phenyl)-ureido]-phenyl}-piperazine-1-carboxylic acid (2,6-dichloro-phenyl)-amide] | ≥ 50% | 210 to 221 °C
12 | COc1ccc(C)cc1NC(=O)Nc1ccc(N2CCN(C(=O)Nc3c(Cl)cccc3C(F)(F)F)CC2)cc1 [Example 66, 4-{4-[3-(2-methoxy-5-methyl-phenyl)-ureido]-phenyl}-piperazine-1-carboxylic acid (2-chloro-6-trifluoromethyl-phenyl)-amide] | ≥ 50% | 196 to 197 °C
13 | COc1ccc(NC(=O)N2CCN(c3ccc(NC(=O)Nc4cc(C)ccc4OC)cc3)CC2)c(C)c1 [Example 73, 4-{4-[3-(2-methoxy-5-methyl-phenyl)-ureido]-phenyl}-piperazine-1-carboxylic acid (4-methoxy-2-methyl-phenyl)-amide] | ≥ 50% | 193 to 195 °C
14 | CCCCc1ccc(NC(=O)N2CCN(c3ccc(NC(=O)Nc4cc(C)ccc4OC)cc3)CC2)c(C)c1 [Example 75, 4-{4-[3-(2-methoxy-5-methyl-phenyl)-ureido]-phenyl}-piperazine-1-carboxylic acid (4-butyl-2-methyl-phenyl)-amide] | ≥ 50% | 172 to 173 °C
15 | COc1ccc(C)cc1NC(=O)Nc1ccc(N2CCN(C(=O)Nc3ccc(C)cc3Cl)CC2)cc1 [Example 76, 4-{4-[3-(2-methoxy-5-methyl-phenyl)-ureido]-phenyl}-piperazine-1-carboxylic acid (2-chloro-4-methyl-phenyl)-amide] | ≥ 50% | 186 to 187 °C
16 | COc1ccc(Cl)cc1NC(=O)Nc1ccc(N2CCN(C(=O)Nc3c(F)cccc3F)CC2)cc1 [Example 77, 4-{4-[3-(5-chloro-2-methoxy-phenyl)-ureido]-phenyl}-piperazine-1-carboxylic acid (2,6-difluoro-phenyl)-amide] | ≥ 50% | 230 to 232 °C
17 | COc1ccc(Cl)cc1NC(=O)Nc1ccc(N2CCN(C(=O)Nc3ccccc3Cl)CC2)cc1 [Example 78, 4-{4-[3-(5-chloro-2-methoxy-phenyl)-ureido]-phenyl}-piperazine-1-carboxylic acid (2-chloro-phenyl)-amide] | ≥ 50% | 231 to 233 °C
18 | COc1ccc(Cl)cc1NC(=O)Nc1ccc(N2CCN(C(=O)Nc3c(C)cccc3Cl)CC2)cc1 [Example 79, 4-{4-[3-(5-chloro-2-methoxy-phenyl)-ureido]-phenyl}-piperazine-1-carboxylic acid (2-chloro-6-methyl-phenyl)-amide] | ≥ 50% | 225 to 227 °C
19 | CCOc1ccccc1NC(=O)Nc1ccc(N2CCN(C(=O)Nc3ccccc3C(F)(F)F)CC2)cc1 [Example 80, 4-{4-[3-(2-ethoxy-phenyl)-ureido]-phenyl}-piperazine-1-carboxylic acid (2-trifluoromethyl-phenyl)-amide] | ≥ 50% | 201 to 203 °C
20 | CCOc1ccccc1NC(=O)Nc1ccc(N2CCN(C(=O)Nc3ccccc3C)CC2)cc1 [Example 81, 4-{4-[3-(2-ethoxy-phenyl)-ureido]-phenyl}-piperazine-1-carboxylic acid o-tolylamide] | ≥ 50% | 206 to 208 °C
21 | CCOc1ccccc1NC(=O)Nc1ccc(N2CCN(C(=O)Nc3c(C)cccc3Cl)CC2)cc1 [Example 82, 4-{4-[3-(2-ethoxy-phenyl)-ureido]-phenyl}-piperazine-1-carboxylic acid (2-chloro-6-methyl-phenyl)-amide] | ≥ 50% | 215 to 217 °C
22 | CCOc1ccc(C)cc1NC(=O)Nc1ccc(N2CCN(C(=O)Nc3ccccc3C(F)(F)F)CC2)cc1 [Example 83, 4-{4-[3-(2-ethoxy-5-methyl-phenyl)-ureido]-phenyl}-piperazine-1-carboxylic acid (2-trifluoromethyl-phenyl)-amide] | ≥ 50% | 219 to 220 °C
